The target of series [1] is T1, soluble recombinant human IL-3 receptor alpha (rhIL3Rα) (Homo sapiens, UniProt P26951).
T1 construct: soluble recombinant human IL-3 receptor alpha (rhIL3Rα)
T1 sequence (P26951 19-305 limits assumed): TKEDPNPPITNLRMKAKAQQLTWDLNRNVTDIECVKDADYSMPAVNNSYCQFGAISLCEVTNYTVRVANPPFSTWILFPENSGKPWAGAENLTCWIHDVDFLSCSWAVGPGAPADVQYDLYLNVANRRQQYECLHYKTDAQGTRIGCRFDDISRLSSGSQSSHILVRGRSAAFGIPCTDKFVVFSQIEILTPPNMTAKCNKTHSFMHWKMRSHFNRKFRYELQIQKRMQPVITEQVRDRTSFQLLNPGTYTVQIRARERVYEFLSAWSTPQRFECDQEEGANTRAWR
As to the kind of experiment: ELISA (rhIL3Rα) DART-A quantitation assay (concentration, protein recovery). The note with it: 0.05 mg/mL PS80 or 0.1 mg/mL PS80. On the procedure:
In brief, the assay plate was coated with soluble recombinant human IL-3 receptor alpha (rhIL3Rα) overnight. […] After addition of MSD Read Buffer, the plate was inserted into the Sector Imager 2400 Plate Reader. When a voltage was applied to the plate electrodes, the bound Sulfo-TAG label produces an ECL signal, which was captured by the plate reader. A quantitative measure of the ECL signal emitted by each well was recorded, and the ECL counts emitted by the standard calibrators were used to generate a standard curve using a 4-parameter logistic (4PL) fit.

Series [2] is described as follows: Stabilizer solution optimizing studies (turbidity, miscibility, pH, MP in solution). The format is physicochemical. On the procedure: Since the BA concentration in the stabilizer solution is limited due to patient safety concerns, to increase the preservative effectiveness duration, the MP concentration in the stabilizer solution could be increased to 0.1%. However, when the concentrated stabilizer solution is presented as a 20 mL additive volume, this level of MP leads to high solution pH (≥9.0), solution turbidity, and PS80 immiscibility. To address these issues, a series of stabilizer solution optimizing studies were performed to determine the final concentrated stabilizer solution.
The first study explored lower levels of PS80 in the concentrated stabilizer solution to determine if the turbidity and solution instability or immiscibility issues can be addressed. […] However, this concentration of PS80 remains turbid at room temperature. A subsequent study evaluating larger concentrated stabilizer solution additive volume presentations was performed to determine if lowering the levels of all excipients in the concentrated stabilizer solution helps address the high turbidity issue. […] To determine optimal concentrated stabilizer solution pH, studies varying the formulation buffer strength were performed. […] As a result, variable concentrations of MP were evaluated in a subsequent study. […] Based on the results of the previous PS80 and MP studies, a final study was performed evaluating variable concentrations of MP and PS80 to determine the optimal combination that addresses solution turbidity at an acceptable pH. […] When 40 mL of this stabilizer solution is diluted in a 250 mL saline bag, the resulting dosing solution will contain 0.17% BA and 0.055% MP. […] As a result, the preservative effectiveness of the re-formulated Stabilizer 2 solution having final preservative levels of 0.17% BA and 0.05% MP in the dosing solution, was examined through microbial challenge testing of USP recommended microbes.
However, BA levels above 15.5 mg/mL result in solution instability or immiscibility and MP levels above 5.3 mg/mL produce a final solution above pH 8.4. […]

A short description of series [3]: RP-HPLC for BA and MP recovery (preservative concentration). The note with it: for Tested Benzyl Alcohol Concentration: Study 2, diluted DART-A DP formulation in cassette 25° C., 100 rpm, 5000 ng/mL, expected 0.86%. In kind it is physicochemical. The procedure:
Preservative recovery was measured using Reverse Phase (RP) HPLC analysis. The RP-HPLC configuration included a photodiode array (PDA) detector (λBA=254 nm, λMP=340 nm), a mobile phase composition of 40% acetonitrile, 0.1% formic acid and a Zorbax® 5 μm Eclipse-XDB-C18 80 Å liquid chromatography column. Samples were diluted ten-fold. The column temperature was set to 40±5° C. 50 μL of solution was injected for each 10-minute run.

The next series has as its system USP recommended microbes. As to the kind of experiment: Microbial challenge testing, statements on several microbes together. The format is cell-based. On the procedure: Microbial challenge testing was performed to evaluate the preservative effect of stabilizer solutions containing ≤0.17% BA and ≤0.1% MP. Microbial challenge testing was chosen as it more accurately represents the proposed dose preparation and dilution scheme where doses will be prepared aseptically and the number of microbes that may be introduced to the solution would be low. Microbial challenge testing was performed in two stages. The first stage determined the effective concentrations of BA and MP while the second stage tested the final formulation according to USP specifications. Each stage is described in detail below.
To confirm the anti-microbial properties of Stabilizer 2 once diluted in saline (i.e., in the dosing solution), microbial growth testing was performed by SGS Life Sciences. The USP recommended microbes required for testing are listed below in Table 26.
A high dosing solution (150 kg patient at 1,000 ng/kg cohort) was prepared to represent the maximum preservative dilution. […] Microbial growth studies were performed on all five USP recommended microbes with a target concentration between 10 and 100 CFU/mL. The microbial growth results are listed below in Table 27.
Microbial Challenge Testing was performed to evaluate the preservative effect of stabilizer solutions. In short, high concentration (1250 ng/mL) dosing solution was prepared according Table 36. USP<51> recommended microbes were introduced to the solution with a target concertation between 10 and 100 CFU/mL. Solutions were stored at the USP<51> recommended temperature for each microbe and at predetermined time points, samples were collected. Testing of samples was performed according to USP<1227>. The threshold for no microbial growth was established to be not greater than 0.5 log colony count compared to the initial concentration of microbe.

Consider polysorbate 80 [PS80], for which the “blocking activity (inhibition of DART-A adsorption)” value in series [1] is “sufficient blocking activity”.

With `COC(=O)c1ccc(O)cc1` [MP, methylparaben], the “share of the target MP concentration that stays in solution” value in series [2] (concentrated stabilizer solution, pH≤8.0) is recorded as 30-50%. Besides, in series [2] (stabilizer solution), the “MP level that produces a final solution above pH 8.4” value is recorded as “above 5.3 mg/mL”.

`OCc1ccccc1` [Benzyl Alcohol, benzyl alcohol]: in series [3] (Study 2, 25° C., 100 rpm shaking for up to 72 hours), the BA content entry is “at least 0.75%”. Moreover, the “Tested Benzyl Alcohol Concentration” value was 0.91% in series [3] (T = 0), 0.78% in series [3] (T = 24 hours), 0.76% in series [3] (T = 48 hours) and 0.78% in series [3] (T = 72 hours). In series [2] (stabilizer solution), the “BA level that results in solution instability or immiscibility” value is recorded as “above 15.5 mg/mL”. Besides, the antimicrobial property entry with USP recommended microbes (BA 0.17% alone (single pump target concentration)) was “does not inhibit growth”; in the series on USP recommended microbes (BA 0.9% (concentration in Stabilizer 1), P. aeruginosa and C. albicans), “both bactericidal and fungicidal”. In addition, in the series on USP recommended microbes (previous study), the “BA concentration that provided sufficient anti-microbial activity” value came out at 0.61%.

These data come from US20220323583A1, “Pharmaceutical Formulations of Bi-Specific Diabodies and Use of the Same” (MacroGenics, Inc., priority 2019, published 2022).
